Assays:
[1] = molecular target: EZH2 (Homo sapiens, UniProt Q15910); test: Inhibitory activity and time dependence against EZH2 (FIG. 2A); assay type: biochemical; settings: result in words
Description: (§1) As depicted in FIG. 2A, Compounds EZ-40, EZ-49, EZ-51, EZ-52, EZ-53, and JQ-80 were profiled for inhibitory activity and time dependence against EZH1 and EZH2.

[2] = molecular target: EZH1 (Homo sapiens, UniProt Q92800); test: Inhibitory activity and time dependence against EZH1 (FIG. 2A); assay type: biochemical; settings: result in words
Description: as §1

EZH2, sequence (Q15910 whole entry): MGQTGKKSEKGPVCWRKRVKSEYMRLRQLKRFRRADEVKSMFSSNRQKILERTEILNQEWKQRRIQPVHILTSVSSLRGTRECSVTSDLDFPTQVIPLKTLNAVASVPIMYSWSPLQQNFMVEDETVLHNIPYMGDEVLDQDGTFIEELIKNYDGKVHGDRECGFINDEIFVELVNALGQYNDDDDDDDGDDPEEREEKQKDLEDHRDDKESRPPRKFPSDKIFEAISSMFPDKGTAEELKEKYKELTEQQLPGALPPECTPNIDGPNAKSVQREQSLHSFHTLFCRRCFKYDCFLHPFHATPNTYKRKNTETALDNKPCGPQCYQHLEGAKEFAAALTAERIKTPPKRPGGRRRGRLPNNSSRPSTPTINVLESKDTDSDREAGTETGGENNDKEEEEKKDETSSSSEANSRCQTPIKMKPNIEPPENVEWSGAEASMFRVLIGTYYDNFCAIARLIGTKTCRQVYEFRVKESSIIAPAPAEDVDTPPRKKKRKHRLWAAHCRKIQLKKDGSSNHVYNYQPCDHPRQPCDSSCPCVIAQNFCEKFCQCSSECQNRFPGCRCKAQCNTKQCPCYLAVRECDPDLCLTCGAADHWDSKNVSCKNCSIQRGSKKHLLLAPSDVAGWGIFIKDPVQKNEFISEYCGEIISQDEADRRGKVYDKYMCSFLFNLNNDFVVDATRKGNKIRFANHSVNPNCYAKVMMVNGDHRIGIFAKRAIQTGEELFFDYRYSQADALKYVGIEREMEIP
EZH2, sequence (O75530 whole entry partner): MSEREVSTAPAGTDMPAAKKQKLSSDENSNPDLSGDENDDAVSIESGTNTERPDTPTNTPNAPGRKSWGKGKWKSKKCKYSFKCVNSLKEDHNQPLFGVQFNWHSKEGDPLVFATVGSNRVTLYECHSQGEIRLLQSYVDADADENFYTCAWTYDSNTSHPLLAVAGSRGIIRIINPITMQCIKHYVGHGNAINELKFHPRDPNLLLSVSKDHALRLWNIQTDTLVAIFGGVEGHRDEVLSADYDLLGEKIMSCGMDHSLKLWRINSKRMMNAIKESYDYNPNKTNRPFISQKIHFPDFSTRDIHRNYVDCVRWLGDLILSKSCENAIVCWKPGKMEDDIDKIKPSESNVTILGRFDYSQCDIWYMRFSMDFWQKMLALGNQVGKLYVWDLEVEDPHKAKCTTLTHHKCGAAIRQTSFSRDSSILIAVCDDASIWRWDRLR
EZH2, sequence (Q15022 whole entry partner): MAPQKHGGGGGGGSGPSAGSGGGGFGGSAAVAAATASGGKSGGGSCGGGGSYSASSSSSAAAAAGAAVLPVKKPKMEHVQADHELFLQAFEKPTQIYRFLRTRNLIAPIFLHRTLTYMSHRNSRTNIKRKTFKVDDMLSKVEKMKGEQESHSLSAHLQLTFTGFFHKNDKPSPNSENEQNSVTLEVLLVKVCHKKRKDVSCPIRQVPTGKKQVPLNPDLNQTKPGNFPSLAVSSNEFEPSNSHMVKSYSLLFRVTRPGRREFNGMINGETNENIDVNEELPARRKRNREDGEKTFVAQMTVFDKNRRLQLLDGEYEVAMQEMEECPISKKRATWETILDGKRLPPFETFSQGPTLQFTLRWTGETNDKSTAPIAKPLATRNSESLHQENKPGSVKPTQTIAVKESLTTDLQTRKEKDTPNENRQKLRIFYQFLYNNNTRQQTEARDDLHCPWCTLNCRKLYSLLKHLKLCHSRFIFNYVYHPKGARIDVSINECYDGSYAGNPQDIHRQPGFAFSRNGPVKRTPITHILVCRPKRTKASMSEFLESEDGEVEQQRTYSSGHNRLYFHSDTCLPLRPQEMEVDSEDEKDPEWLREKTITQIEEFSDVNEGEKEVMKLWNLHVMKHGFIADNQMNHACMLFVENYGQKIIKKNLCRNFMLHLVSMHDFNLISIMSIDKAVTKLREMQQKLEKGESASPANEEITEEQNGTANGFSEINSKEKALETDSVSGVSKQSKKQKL
EZH1, sequence (Q92800 whole entry): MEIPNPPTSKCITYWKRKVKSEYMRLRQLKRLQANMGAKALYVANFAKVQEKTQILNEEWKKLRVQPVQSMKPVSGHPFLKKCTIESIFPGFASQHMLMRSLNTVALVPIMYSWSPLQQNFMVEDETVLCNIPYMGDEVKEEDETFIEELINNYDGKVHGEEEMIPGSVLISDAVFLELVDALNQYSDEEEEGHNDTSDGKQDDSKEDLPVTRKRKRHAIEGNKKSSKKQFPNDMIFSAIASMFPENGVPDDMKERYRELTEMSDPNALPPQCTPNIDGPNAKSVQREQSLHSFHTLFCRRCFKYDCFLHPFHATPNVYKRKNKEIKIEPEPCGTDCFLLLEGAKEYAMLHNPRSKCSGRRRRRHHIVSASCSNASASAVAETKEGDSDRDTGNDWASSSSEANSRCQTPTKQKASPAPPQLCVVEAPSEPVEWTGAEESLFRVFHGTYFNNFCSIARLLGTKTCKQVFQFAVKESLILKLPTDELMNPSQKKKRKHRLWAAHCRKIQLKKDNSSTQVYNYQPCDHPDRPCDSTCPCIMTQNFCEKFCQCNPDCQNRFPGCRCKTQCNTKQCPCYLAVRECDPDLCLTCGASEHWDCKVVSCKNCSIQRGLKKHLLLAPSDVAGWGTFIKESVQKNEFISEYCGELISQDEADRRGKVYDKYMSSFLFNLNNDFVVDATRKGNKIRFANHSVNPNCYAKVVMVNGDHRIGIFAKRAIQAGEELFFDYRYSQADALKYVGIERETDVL
EZH1, sequence (O75530 whole entry partner): as the sequence (O75530 whole entry partner) above
EZH1, sequence (Q15022 whole entry partner): as the sequence (Q15022 whole entry partner) above

inhibitory activity [1]: high potency
mode of inhibition [1]: irreversible inhibitor
time dependence [1]: time dependency
inhibitory activity [2]: high potency
mode of inhibition [2]: irreversible inhibitor
time dependence [2]: time dependency
Compound: C=CC(=O)N(c1cc(-c2ccc(N3CCN(C)CC3)nc2)cc(C(=O)NCc2c(CCC)cc(C)[nH]c2=O)c1C)C1CCOCC1 [EZ-53]

From patent publication US10633371B2, “EZH2 inhibitors and uses thereof” (Dana-Farber Cancer Institute, Inc., priority 2016, dated 2020)
